{"source": "patent US11311576B2", "about": "“Methods of use for CAR T cells” (Seattle Children's Hospital, priority 2018, dated 2022)", "key": {"FRβ (CHO-b)": {"biological_target": "T1, FRβ (CHO-b) (Homo sapiens, UniProt P14207)", "T1 construct": "expressed in transfected cells; host or cells: CHO (Chinese hamster ovary) cells", "T1 sequence (P14207 17-230)": "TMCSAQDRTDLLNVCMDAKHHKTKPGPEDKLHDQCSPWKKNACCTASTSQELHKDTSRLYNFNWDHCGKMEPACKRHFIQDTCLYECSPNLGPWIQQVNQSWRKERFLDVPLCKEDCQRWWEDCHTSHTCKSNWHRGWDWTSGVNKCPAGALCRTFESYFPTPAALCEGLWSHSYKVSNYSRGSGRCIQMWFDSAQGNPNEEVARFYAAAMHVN", "assay": "3H-EC17 cell-based radioligand binding assay, CHO-β cells", "details": "2 h at 37° C.", "description": "The bispecific affinities of EC17 CAM were assessed using ^3H-EC17 in cell-based radioligand binding assays. For binding to FR+ targets, KB and CHO-β cells were pre-seeded overnight in 24-well tissue culture plates and incubated with 0.1, 0.5, 1, 5, 10, 20, and 40 nM of ^3H-EC17 in FFRPMI for 2 h at 37° C. Afterwards, the cells were rinsed with phosphate-buffered saline (PBS, pH 7.4) and lysed with 1% sodium dodecylsulfate. The whole cell lysates were quantitated for the level of radioactivity and cellular protein content by standard Pierce BCA protein assay. The number of ^3H-EC17 molecules bound per cell was calculated to determine the dissociation constants (Kd) for FRα (KB) and FRβ (CHO-b) respectively (FIG. 56A, FIG. 56B)."}, "MDA-MB-231 tumors [1]": {"tested_on": "MDA-MB-231 tumors", "assay": "EC17/E2-CAR T-cell therapy in NSG mice bearing MDA-MB-231 tumors", "type": "in vivo", "details": "10 million E2 CAR-T cells, EC17 500 nmol/kg days 2 and 10, versus no EC17", "description": "MDA-MB-231 tumor cells were grown in folate-deficient RPMI 1640 with 5-10% FBS at 37° C. in a 5% CO2 humidified atmosphere. MDA-MB-231 tumor cells were inoculated subcutaneously at 2.5×10^6 cells per animal. Only […] mice were inoculated and the remaining 22 mice were kept tumor-free.\nEGFRt-sorted anti-FITC E2 scFv-CAR T cells were frozen in a T-cell freezing medium. Vials of frozen CAR-T cells were immediately stored at −80° C. The CAR-T cells were quickly thawed at 37° C., washed twice with PBS, and used for animal injection at 10 million viable EGFRt+E2 CAR-T cells (CD4/CD8 at ˜1:1) per animal. […]\nWhole blood cell analysis: Plasma was removed from predetermined volumes of whole EDTA treated blood and RBCs were lysed with RBC lysis solution. […] Determination of the concentration of CAR T cells in each blood sample was calculated according to Invitrogen's instructions. CAR T cells were identified as human CD3ε+ EGFRt+ events and easily distinguished and counted using the Kaluza™ flow cytometry software. The number of CAR T cells in the circulation of each infused mouse was then represented on the graphs as the total number of CAR T cells per 100 μL of whole blood analyzed. Statistical significance was determined by utilizing an unpaired, two-tailed, students t30 test with significance set at p<0.05. […]"}, "MDA-MB-231 tumors [2]": {"tested_on": "MDA-MB-231 tumors", "assay": "Dietary folate effect on antitumor activity and CRS toxicity, MDA-MB-231 tumors", "type": "in vivo, NSG mice", "description": "To study the effect of high dietary folate (FIG. 63A, FIG. 63B, FIG. 63C, FIG. 63D), two sets of NSG mice were placed on either a FA-replete diet (4 mg/kg, Envigo, Indianapolis, Ind.) or a FA-deficient diet (TestDiet, St. Louis, Mo.) upon arrival. On day 0, both sets of the mice received ˜10 million of the same “clinical facsimile” CAR-T cells followed by no EC17 or EC17 SIW at 500 nmol/kg starting on day 3. On the first day of EC17 administration, MDA-MB-231 tumors size averaged around ˜549±184 mm^3 (280-918 mm3) in FA-replete mice, and ˜559±165 mm^3 (356-961 mm^3) in FA-deficient mice.\nPreviously, it was shown that administration of FA or a FA ligand helped reduce the severity of CRS in MDA-MB-231 tumor-bearing mice. To test the long-term effect of dietary folate, mice were maintained on defined diets for ˜73 days and used when their tumors reached ˜549±184 mm3 (280-918 mm^3) in FA-replete mice, and ˜559±165 mm^3 (356-961 mm^3) in FA-deficient mice (FIG. 63A, FIG. 63B, FIG. 63C, FIG. 63D)."}, "[3]": {"details": "FA-deficient diet, each subsequent EC17 dose"}, "[4]": {"details": "FA-replete mice, CAR-T cells plus EC17"}}, "data": [{"smiles": "NC1=NC2N=CC(CNc3ccc(C(=O)N[C@@H](CCC(=O)NCCNC(=S)Nc4ccc(-c5c6ccc(=O)cc-6oc6cc(O)ccc56)c(C(=O)O)c4)C(=O)O)cc3)=NC2C(=O)N1", "note": "(stereo partly shown) [EC17, FA-(g)-ethylenediamine-FITC]", "values": [{"measurement": "Kd", "setting": "FRβ (CHO-b)", "value": 0.8, "unit": "nM"}, {"measurement": "cytokine levels (IL2, IFN-γ, IL-10) in plasma", "setting": "MDA-MB-231 tumors [1]", "value": "all increased"}, {"measurement": "CRS grade", "setting": "MDA-MB-231 tumors [2]; [3]", "value": "2-3"}, {"measurement": "body weight loss", "setting": "MDA-MB-231 tumors [2]; [3]", "value": "≤ 11.4", "unit": "%"}, {"measurement": "cures", "setting": "MDA-MB-231 tumors [2]; FA-deficient mice, CAR-T cells plus EC17", "value": "5/5"}, {"measurement": "symptoms of CRS", "setting": "MDA-MB-231 tumors [2]; FA-replete diet, eight weekly EC17 doses of 500 nmol/kg", "value": "did not show symptoms of CRS"}, {"measurement": "complete responses", "setting": "MDA-MB-231 tumors [2]; [4]", "value": "2/5"}, {"measurement": "cures", "setting": "MDA-MB-231 tumors [2]; [4]", "value": "2/5"}, {"measurement": "partial response", "setting": "MDA-MB-231 tumors [2]; [4]", "value": "1/5"}, {"measurement": "CRS or body weight loss after first full dose", "setting": "MDA-MB-231 tumors [2]; ~10 million clinical facsimile E2-CAR-T cells, EC17 500 nmol/kg, either diet", "value": "did not cause any CRS or body weight loss"}]}]}
